This assay has as its target HPK1. In words: HPK1 Lantha Binding Assay ("Lanth"). The method, boiled down: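 Compounds in an 11-point 5-fold series were preincubated 1 h at 23 C with 2 nM kinase plus 2 nM Eu-anti-GST antibody. Then 15 nM Tracer222 was added for another hour, and time-resolved FRET was read at 665/615 nm. Ki values come from a Morrison tight-binding model that uses the tracer Kd.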

The mark [1] stands for this setting: Table B1-1, read-out: HPK1 Ki (μM) (Lanth).
Where [2] appears, read: Table B1-2, read-out: HPK1 Ki, L = Lanth.

SMILES strings stand for the structures. Like-named read-outs stand apart in the source and are kept apart here. Some results are limits rather than exact numbers.

A word on the Ki: it is a dissociation constant, usually derived from enzyme kinetics or from competition with a known ligand. As to `Cc1cc(-c2ncco2)ncc1-c1cc2cc(NC(=O)[C@@H]3C[C@H]3c3cnn(C)c3)ncc2c(N)n1` [Compound 309, (1R,2R)—N-[8-amino-6-[4-methyl-6-(1,3-oxazol-2-yl)pyridin-3-yl]-2,7-naphthyridin-3-yl]-2-(1-methyl-1H-pyrazol-4-yl)cyclopropane-1-carboxamide], the Ki under setting [1] worked out at 0.184 nM. As to `N#CC[C@H]1C[C@@H]1C(=O)Nc1cc2cc(-c3c(Cl)cccc3Cl)nc(N)c2cn1` [Compound 310, (1S,2R)—N-(8-amino-6-(2,6-dichlorophenyl)-2,7-naphthyridin-3-yl)-2-(cyanomethyl)cyclopropanecarboxamide], the Ki under setting [1] worked out at 0.0675 nM. `N#CC[C@@H]1C[C@H]1C(=O)Nc1cc2cc(-c3c(Cl)cccc3Cl)nc(N)c2cn1` [Compound 311, (1R,2S)—N-(8-amino-6-(2,6-dichlorophenyl)-2,7-naphthyridin-3-yl)-2-(cyanomethyl)cyclopropanecarboxamide]: the inhibitory constant (Ki) under setting [1] came to 1.15 nM. `Cc1ccncc1-c1cc2cc(NC(=O)[C@@H]3C[C@@]34CCNC(=O)C4)ncc2c(N)n1` [Compound 312, (1R,3S)—N-[8-amino-6-(4-methylpyridin-3-yl)-2,7-naphthyridin-3-yl]-5-oxo-6-azaspiro[2.5]octane-1-carboxamide]: the Ki under setting [1] was found to be 5.77 nM. In the case of `Cc1ccncc1-c1cc2cc(NC(=O)[C@H]3C[C@]34CCNC(=O)C4)ncc2c(N)n1` [Compound 313, (1S,3R)—N-[8-amino-6-(4-methylpyridin-3-yl)-2,7-naphthyridin-3-yl]-5-oxo-6-azaspiro[2.5]octane-1-carboxamide], the Ki under setting [1] was 0.02 nM. With `Cc1ccncc1-c1cc2cc(NC(=O)[C@H]3C[C@@]34CCNC(=O)C4)ncc2c(N)n1` [Compound 314, (1S,3S)—N-[8-amino-6-(4-methylpyridin-3-yl)-2,7-naphthyridin-3-yl]-5-oxo-6-azaspiro[2.5]octane-1-carboxamide], the Ki under setting [1] was 13.1 nM. On the same count and under the same terms, then `Cc1ccncc1-c1cc2cc(NC(=O)[C@@H]3C[C@]34CCNC(=O)C4)ncc2c(N)n1` [Compound 315, (1R,3R)—N-[8-amino-6-(4-methylpyridin-3-yl)-2,7-naphthyridin-3-yl]-5-oxo-6-azaspiro[2.5]octane-1-carboxamide], with 12.2 nM; and `Cc1ccncc1-c1nc(N)c2cnc(NC(=O)[C@@H]3C[C@H]3CC#N)cc2c1C1CC1` [Compound 316, (1R,2S)—N-(8-amino-5-cyclopropyl-6-(4-methylpyridin-3-yl)-2,7-naphthyridin-3-yl)-2-(cyanomethyl)cyclopropanecarboxamide], with 0.522 nM. Still for that read-out and setting: then `Cc1ccncc1-c1nc(N)c2cnc(NC(=O)[C@H]3C[C@@H]3CC#N)cc2c1C1CC1` [Compound 317, (1S,2R)—N-(8-amino-5-cyclopropyl-6-(4-methylpyridin-3-yl)-2,7-naphthyridin-3-yl)-2-(cyanomethyl)cyclopropanecarboxamide], with 0.02 nM. Consider `Cc1ccnc(-c2ccccc2)c1-c1cc2cc(NC(=O)[C@H]3C[C@@H]3c3cnn(C)c3)ncc2c(N)n1` [Compound 318, (1S,2S)—N-(8-amino-6-(4-methyl-2-phenylpyridin-3-yl)-2,7-naphthyridin-3-yl)-2-(1-methyl-1H-pyrazol-4-yl)cyclopropanecarboxamide], for which the Ki under setting [1] amounted to 0.032 nM. For the compound `Cc1ccnc(-c2ccccc2)c1-c1cc2cc(NC(=O)[C@@H]3C[C@H]3c3cnn(C)c3)ncc2c(N)n1` [Compound 319, (1R,2R)—N-(8-amino-6-(4-methyl-2-phenylpyridin-3-yl)-2,7-naphthyridin-3-yl)-2-(1-methyl-1H-pyrazol-4-yl)cyclopropanecarboxamide], under setting [1], the Ki came out at 0.02 nM. `Cc1ccncc1-c1cc2cc(NC(=O)[C@H]3CC[C@@H]3C)ncc2c(N)n1` [Compound 320, (1S,2S)—N-(8-amino-6-(4-methylpyridin-3-yl)-2,7-naphthyridin-3-yl)-2-methylcyclobutanecarboxamide]: the Ki under setting [1] was found to be 7.82 nM. Take `Cc1ccncc1-c1cc2cc(NC(=O)[C@H]3CC[C@H]3C)ncc2c(N)n1` [Compound 321, (1S,2R)—N-(8-amino-6-(4-methylpyridin-3-yl)-2,7-naphthyridin-3-yl)-2-methylcyclobutanecarboxamide]: the Ki under setting [1] was found to be 57.4 nM. With `Cc1ccncc1-c1cc2cc(NC(=O)[C@@H]3CC[C@H]3C)ncc2c(N)n1` [Compound 322, (1R,2R)—N-(8-amino-6-(4-methylpyridin-3-yl)-2,7-naphthyridin-3-yl)-2-methylcyclobutanecarboxamide], the Ki under setting [1] was found to be 14.8 nM. Turning to `Cc1ccncc1-c1cc2cc(NC(=O)[C@@H]3CC[C@@H]3C)ncc2c(N)n1` [Compound 323, (1R,2S)—N-(8-amino-6-(4-methylpyridin-3-yl)-2,7-naphthyridin-3-yl)-2-methylcyclobutanecarboxamide], under setting [1], the inhibition constant Ki worked out at 76.3 nM. Take `Cc1ccncc1-c1cc2cc(NC(=O)[C@H]3C[C@@H]3C3CCOCC3)ncc2c(N)n1` [Compound 324, (1S,2R)—N-[8-amino-6-(4-methylpyridin-3-yl)-2,7-naphthyridin-3-yl]-2-(oxan-4-yl)cyclopropane-1-carboxamide]: the inhibition constant (Ki) under setting [1] amounted to 0.48 nM. For `Cc1ccncc1-c1cc2cc(NC(=O)[C@@H]3C[C@H]3C3CCOCC3)ncc2c(N)n1` [Compound 325, (1R,2S)—N-[8-amino-6-(4-methylpyridin-3-yl)-2,7-naphthyridin-3-yl]-2-(oxan-4-yl)cyclopropane-1-carboxamide], under setting [1], the Ki worked out at 3.43 nM.

Turning to `Cc1ccncc1-c1cc2cc(NC(=O)[C@@H]3[C@@H](C)[C@H]3c3cnn(C)c3)ncc2c(N)n1` [Compound 326, (1R,2S,3R)—N-[8-amino-6-(4-methylpyridin-3-yl)-2,7-naphthyridin-3-yl]-2-methyl-3-(1-methyl-1H-pyrazol-4-yl)cyclopropane-1-carboxamide], the Ki under setting [1] turned out to be 0.074 nM. On the same count and under the same terms, the value for `Cc1ccncc1-c1cc2cc(NC(=O)[C@H]3[C@H](C)[C@@H]3c3cnn(C)c3)ncc2c(N)n1` [Compound 327, (1S,2R,3S)—N-[8-amino-6-(4-methylpyridin-3-yl)-2,7-naphthyridin-3-yl]-2-methyl-3-(1-methyl-1H-pyrazol-4-yl)cyclopropane-1-carboxamide] was 1.43 nM. As to `Cc1ccncc1-c1cc2cc(NC(=O)[C@@H]3[C@H](C)[C@H]3c3cnn(C)c3)ncc2c(N)n1` [Compound 329, (1R,2R,3R)—N-[8-amino-6-(4-methylpyridin-3-yl)-2,7-naphthyridin-3-yl]-2-methyl-3-(1-methyl-1H-pyrazol-4-yl)cyclopropane-1-carboxamide], the Ki under setting [1] was determined as 2.65 nM.

As for `COCCn1cc([C@@H]2C[C@H]2C(=O)Nc2cc3cc(-c4cnccc4C)nc(N)c3cn2)cn1` [Compound 330, (1R,2R)—N-(8-amino-6-(4-methylpyridin-3-yl)-2,7-naphthyridin-3-yl)-2-(1-(2-methoxyethyl)-1H-pyrazol-4-yl)cyclopropanecarboxamide], the Ki under setting [1] was less than 0.02 nM. Regarding `COCCn1cc([C@H]2C[C@@H]2C(=O)Nc2cc3cc(-c4cnccc4C)nc(N)c3cn2)cn1` [Compound 331, (1S,2S)—N-(8-amino-6-(4-methylpyridin-3-yl)-2,7-naphthyridin-3-yl)-2-(1-(2-methoxyethyl)-1H-pyrazol-4-yl)cyclopropanecarboxamide], the Ki under setting [1] is 1.12 nM. Consider `Cn1cc([C@@H]2C[C@H]2C(=O)Nc2cc3c(Cl)c(-c4cnccc4CCO)nc(N)c3cn2)cn1` [Compound 333, (1R,2R)—N-(8-amino-5-chloro-6-(4-(2-hydroxyethyl)pyridin-3-yl)-2,7-naphthyridin-3-yl)-2-(1-methyl-1H-pyrazol-4-yl)cyclopropanecarboxamide], for which the Ki under setting [1] came to 0.432 nM.

With `Cc1cc(-c2ccccc2)ncc1-c1cc2cc(NC(=O)[C@@H]3C[C@H]3CC#N)ncc2c(N)n1` [Compound 334, (1R,2S)—N-[8-amino-6-(4-methyl-6-phenylpyridin-3-yl)-2,7-naphthyridin-3-yl]-2-(cyanomethyl)cyclopropane-1-carboxamide], the Ki under setting [1] was found to be 20.4 nM. Regarding `Cc1cc(-c2ccccc2)ncc1-c1cc2cc(NC(=O)[C@H]3C[C@@H]3CC#N)ncc2c(N)n1` [Compound 335, (1S,2R)—N-[8-amino-6-(4-methyl-6-phenylpyridin-3-yl)-2,7-naphthyridin-3-yl]-2-(cyanomethyl)cyclopropane-1-carboxamide], the inhibition constant Ki under setting [1] amounted to 4.41 nM. On the same count and under the same terms, then `Cc1ccncc1-c1cc2cc(NCC(F)F)ncc2c(N)n1` [Compound 338, N6-(2,2-difluoroethyl)-3-(4-methylpyridin-3-yl)-2,7-naphthyridine-1,6-diamine], with 345 nM.

Regarding `Cc1cccc(F)c1-c1cc2cc(NC(=O)[C@@H]3[C@@H](C)[C@H]3c3cnn(C)c3)ncc2c(N)n1` [Compound 354, (1R,2S,3R)—N-[8-amino-6-(2-fluoro-6-methylphenyl)-2,7-naphthyridin-3-yl]-2-methyl-3-(1-methyl-1H-pyrazol-4-yl)cyclopropane-1-carboxamide], the Ki under setting [2] is 0.083 nM.

On to `Cc1cccc(F)c1-c1cc2cc(NC(=O)[C@H]3[C@@H](C)[C@@H]3c3cnn(C)c3)ncc2c(N)n1` [Compound 355, (1S,2S,3S)—N-[8-amino-6-(2-fluoro-6-methylphenyl)-2,7-naphthyridin-3-yl]-2-methyl-3-(1-methyl-1H-pyrazol-4-yl)cyclopropane-1-carboxamide], for which the Ki under setting [2] stood at 1.8 nM. Take `Cc1cccc(F)c1-c1cc2cc(NC(=O)[C@H]3[C@H](C)[C@@H]3c3cnn(C)c3)ncc2c(N)n1` [Compound 357, (1S,2R,3S)—N-[8-amino-6-(2-fluoro-6-methylphenyl)-2,7-naphthyridin-3-yl]-2-methyl-3-(1-methyl-1H-pyrazol-4-yl)cyclopropane-1-carboxamide]: under setting [2], the Ki was found to be 2.7 nM.

Take `Cc1ccncc1-c1cc2cc(NC(=O)[C@H]3[C@@H]4CC(NS(C)(=O)=O)C[C@@H]43)ncc2c(N)n1` (stereo partly drawn) [Compound 412, N-(8-amino-6-(4-methylpyridin-3-yl)-2,7-naphthyridin-3-yl)-3-(methylsulfonamido)bicyclo[3.1.0]hexane-6-carboxamide]: under setting [2], the inhibitory constant (Ki) is 96 nM.

Values taken from US11034692B1 (Genentech, Inc., priority 2017, dated 2021).
